From patent publication US10959428B2, “Hematophagous arthropod repellent composition” (WOOJUNG BIO INC., priority 2017, dated 2021)

System: adult Aedes aegypti
Assay: cage-in-arm test, complete protection time (CPT)
Assay type: in vivo
Conditions: 4 mg, adult Aedes aegypti
Procedure: For determining the repellency of prepared samples against adults of Aedes aegypti and Aedes albopicus, a cage-in-arm test was carried out as a method for exposure to skin. Namely, on a back of the hand of a rubber glove, a hole with diameter of 5 cm was created, and, onto an exposed back of the testees, various samples prepared by dissolution in 100 μl of ethanol were applied, and then the skin test was carried out. The testees were healthy males between the ages of 21 and 40. The control group was treated with 100 μl of ethanol only. Female adults (5 to 8 day old) of Aedes aegypti or Aedes albopicus (250 to 300 mosquitoes) were added to a cage for growing adult mosquitoes (25×25×25 cm^3), and adapted to the indoor conditions for 12 to 24 hours before starting the test. When the upper arm of the control group is exposed for 1 minute and at least 6 mosquitoes sit on the upper arm or show a bloodsucking behavior, it was determined as sufficient biting pressure, and then the repellency test was carried out. […] The time period between the time point with initial treatment of a material and the time point at which 2 or more mosquitoes continuously sit on the treatment area or show the bloodsucking behavior was defined as complete protection time (CPT). Furthermore, for obtaining the repellency with regard to concentration, exposure was made for a constant time period regardless of the above and the repellency was calculated by using the following formula. Accordingly, the effect was compared among each test samples. All tests were carried out in triplicate. Repellency %=(Number of insects showing bloodsucking behavior in non-treatment group−Number of insects showing bloodsucking behavior in treatment group)/Number of insects showing bloodsucking behavior in non-treatment group)×100 <Tick Repellency>

Row | SMILES | CPT [min]
1 | COc1cc(C=O)ccc1OCc1ccccc1 [4-Benzyloxy-3-methoxybenzaldehyde, 4-benzyloxy-3-methoxybenzaldehyde] | 22
2 | COc1cc(C=O)ccc1O [Vanillin] | 30
